Test results from patent US8044035B2, “Pharmaceutical compositions of pyrimidine-2,4,6-triones” (priority 2004, dated 2011).
Like-named read-outs stand apart in the source and are kept apart here.

How the values were obtained:
[1] = Solubility of various trioxopyrimidines in the presence of HPβCD; type: physicochemical; conditions: HPβCD solution, 37 °C, aqueous with cosolvent or surfactant or cyclodextrin, thermodynamic from solid, read-out: Concentration (solubility)
Experimental: 1.1 Weigh 20 mg of compound I. Add 2 ml of solution of HPβCD 200 mM. Stir for 24 h at 37° C. Filter in Millipore filter Millex HV 0.45 μm. The solution obtained after filtration contains the complex compound I-CD in solution.
1.2. Weigh 2.5 mg of compound I. Add 2 ml of solution of HPβCD 200 mM. Stir at 37° C. for 24 h or until compound I is completely dissolved. The solution obtained in this way contains the complex compound I-CD.
At the time of a complex formation, compound I, practically insoluble in water (<0.6 μg/ml, MW: 485), solubilizes dramatically. The increase in the solubility of compound I is thus proof of a complex formation between Compound I and the CD. Complex formation and achievement of the equilibrium is found at 20% after 1 day, 40% after 4 days, and 100% after 7 days. The solubility diagrams (FIG. 1) are carried out by adding an excess of compound I to the CD solutions of increasing concentration. After 7 days of stirring in thermostatically controlled baths at 37° C., these solutions are filtered and the solubilized compound I quantity is dosed by HPLC. The βCD and the γCD as well as their synthetic derivatives have allowed complexes with compound I to be formed. The β-CD and the HPβCD come from ROQUETTE (France), the RMβCD and the γCD have been supplied by Wacker (Germany).
The flasks containing compound I and the cyclodextrins are placed being stirred in thermostatically controlled baths at 37° C. for 7 days, so that the complexation balance is reached. After this time, the suspensions are filtered with the help of a milli-pore filter 0.22 μm in PVDF and the filtrate is dissolved in DMSO in the mobile phase to obtain concentration samples situating themselves on the calibrating line. They are then dosed thanks to the validated HPLC method, described below.
Solubility is investigated according to Examples 1 and 2.

[2] = Differential solubility in acetonitrile of free and complexed compound I; type: physicochemical
Text: Compound I has different solubility when it is in the complex form or not. […] In these conditions the included drug remains trapped and becomes insoluble in the solvent. This technique of differential solubility between compound I in the free or in the complexed form can be applied to evaluate the percentage of complexation.

| Molecule | solubility ([1]; HPβCD 10 mM) [µg/mL] | solubility ([1]; HPβCD 25 mM) [µg/mL] | solubility ([1]; HPβCD 50 mM) [µg/mL] | solubility ([1]; HPβCD 100 mM) [µg/mL] | solubility ([1]; HPβCD 200 mM) [µg/mL] | Solubility in acetonitrile [2] |
| --- | --- | --- | --- | --- | --- | --- |
| O=C1NC(=O)C(c2ccc(Oc3ccccc3)cc2)(N2CCN(c3ncccn3)CC2)C(=O)N1 [Compound II, 5-(4-Phenoxy-phenyl)-5-(4-pyrimidin-2-yl-piperazin-1-yl)-pyrimidine-2,4,6-trione] | 1300 | 3400 | 3800 | 5900 | 9300 | – |
| O=C1NC(=O)C(c2ccc(Oc3ccc(Cl)cc3)cc2)(N2CCN(c3ncccn3)CC2)C(=O)N1 [Compound III, 5-[4-(4-Chloro-phenoxy)-phenyl]-5-(4-pyrimidin-2-yl-piperazin-1-yl)-pyrimidine-2,4,6-trione] | 800 | 2400 | 3100 | 6100 | 9500 | – |
| O=C1NC(=O)C(c2ccc(Oc3ccc(Cl)c(Cl)c3)cc2)(N2CCN(c3ncccn3)CC2)C(=O)N1 [Compound IV, 5-[4-(3,4-Dichloro-phenoxy)-phenyl]-5-(4-pyrimidin-2-yl-piperazin-1-yl)-pyrimidine-2,4,6-trione] | 100 | 200 | 900 | 2700 | 7900 | – |
| O=C1NC(=O)C(c2ccc(Oc3ccc(Br)cc3)cc2)(N2CCN(c3ncccn3)CC2)C(=O)N1 [Compound V, 5-[4-(4-Bromo-phenoxy)-phenyl]-5-(4-pyrimidin-2-yl-piperazin-1-yl)-pyrimidine-2,4,6-trione] | 800 | 2400 | 5400 | 6600 | 9900 | – |
| Hydroxypropyl β-cyclodextrin [HP-β-CD] | – | – | – | – | – | insoluble |
